Laboratory results as given in ChEMBL document CHEMBL3885861, “Open TG-GATES”.

Species on record: Rattus norvegicus
Assay: Open TG-GATES - Regimen: Single
Type: toxicity, organism-based, Sprague-Dawley
Design: regimen Single, gender Male, age 6 weeks
Settings: in vivo, po, 0 mg/kg, route gavage, dose level Control; for APTT / Bas / Eos / Fbg / Hb / Ht / Lym / MCH / MCHC / MCV / Mono / Neu / PT / Plat / RBC / Ret / WBC: tissue Blood; for KIDNEY_L / KIDNEY_R / KIDNEY_TOTAL: tissue Kidney; for LIVER: tissue Liver; for ALP / ALT / AST / BUN / CRE / Ca / Cl / DBIL / GLC / IP / K / LDH / Na / PL / RALB / TBIL / TC / TG / TP / gamma-GTP: tissue Plasma

COC(=O)C1=C(C)NC(C)=C(C(=O)OC)C1c1ccccc1[N+](=O)[O-] [NIFEDIPINE]
TERMINAL_BW (3 h): 197.5 g
APTT (3 h): 16.4 s
Bas (3 h): 0.2%
Eos (3 h): 0.8%
Fbg (3 h): 271 mg/dL
Hb (3 h): 13.3 g/dL
Ht (3 h): 41.5%
Lym (3 h): 74.2%
MCH (3 h): 20.8 pg
MCHC (3 h): 32.1%
MCV (3 h): 64.8 fL
Mono (3 h): 2.6%
Neu (3 h): 21.2%
PT (3 h): 14.8 s
Plat (3 h): 120 x10_4/uL
RBC (3 h): 641.4 x10_4/ul
Ret (3 h): 8.7%
WBC (3 h): 85.8 x10_2/uL
KIDNEY_L (3 h): 0.9 g
KIDNEY_R (3 h): 0.9 g
KIDNEY_TOTAL (3 h): 1.8 g
LIVER (3 h): 8.4 g
ALP (3 h): 1457.4 IU/L
ALT (3 h): 49.6 IU/L
AST (3 h): 81.8 IU/L
BUN (3 h): 9.4 mg/dL
CRE (3 h): 0.2 mg/dL
Ca (3 h): 10.6 mg/dL
Cl (3 h): 105.6 meq/L
DBIL (3 h): 0.012 mg/dL
GLC (3 h): 178.4 mg/dL
IP (3 h): 9.6 mg/dL
K (3 h): 4.4 meq/L
LDH (3 h): 90.8 IU/L
Na (3 h): 142 meq/L
PL (3 h): 128.2 mg/dL
RALB (3 h): 2.5 g/dL
TBIL (3 h): 0.044 mg/dL
TC (3 h): 70.2 mg/dL
TG (3 h): 42.4 mg/dL
TP (3 h): 5.2 g/dL
gamma-GTP (3 h): 1 IU/L
TERMINAL_BW (6 h): 197 g
APTT (6 h): 16.6 s
Bas (6 h): 0.2%
Eos (6 h): 1%
Fbg (6 h): 298 mg/dL
Hb (6 h): 13.5 g/dL
Ht (6 h): 42.2%
Lym (6 h): 71.2%
MCH (6 h): 21.1 pg
MCHC (6 h): 32%
MCV (6 h): 65.8 fL
Mono (6 h): 3.2%
Neu (6 h): 23.6%
PT (6 h): 15 s
Plat (6 h): 127.7 x10_4/uL
RBC (6 h): 641.2 x10_4/ul
Ret (6 h): 8.8%
WBC (6 h): 94.9 x10_2/uL
KIDNEY_L (6 h): 0.9 g
KIDNEY_R (6 h): 0.9 g
KIDNEY_TOTAL (6 h): 1.7 g
LIVER (6 h): 8.2 g
ALP (6 h): 1485.2 IU/L
ALT (6 h): 43.4 IU/L
AST (6 h): 71 IU/L
BUN (6 h): 9 mg/dL
CRE (6 h): 0.2 mg/dL
Cl (6 h): 107.4 meq/L
DBIL (6 h): 0.008 mg/dL
GLC (6 h): 177.8 mg/dL
IP (6 h): 9.7 mg/dL
K (6 h): 4.2 meq/L
LDH (6 h): 70.4 IU/L
Na (6 h): 144 meq/L
PL (6 h): 139.8 mg/dL
RALB (6 h): 2.5 g/dL
TBIL (6 h): 0.036 mg/dL
TC (6 h): 78.8 mg/dL
TG (6 h): 56 mg/dL
TP (6 h): 5.4 g/dL
gamma-GTP (6 h): 1 IU/L
TERMINAL_BW (9 h): 193.8 g
APTT (9 h): 16 s
Bas (9 h): 0%
Eos (9 h): 1%
Fbg (9 h): 297 mg/dL
Hb (9 h): 13.1 g/dL
Ht (9 h): 40.6%
Lym (9 h): 80.6%
MCH (9 h): 21 pg
MCHC (9 h): 32.4%
MCV (9 h): 65 fL
Mono (9 h): 2%
Neu (9 h): 15.8%
PT (9 h): 14.7 s
Plat (9 h): 120.3 x10_4/uL
RBC (9 h): 626.4 x10_4/ul
Ret (9 h): 9%
WBC (9 h): 65.5 x10_2/uL
KIDNEY_L (9 h): 0.9 g
KIDNEY_R (9 h): 0.9 g
KIDNEY_TOTAL (9 h): 1.7 g
LIVER (9 h): 7.4 g
ALP (9 h): 1438.2 IU/L
ALT (9 h): 35.6 IU/L
AST (9 h): 67 IU/L
BUN (9 h): 8.2 mg/dL
CRE (9 h): 0.2 mg/dL
Ca (9 h): 10.4 mg/dL
Cl (9 h): 106.6 meq/L
DBIL (9 h): 0.002 mg/dL
GLC (9 h): 162.8 mg/dL
IP (9 h): 10.2 mg/dL
K (9 h): 3.7 meq/L
LDH (9 h): 61.4 IU/L
Na (9 h): 143.4 meq/L
PL (9 h): 130.6 mg/dL
RALB (9 h): 2.5 g/dL
TBIL (9 h): 0.04 mg/dL
TC (9 h): 79 mg/dL
TG (9 h): 18.4 mg/dL
TP (9 h): 5.3 g/dL
gamma-GTP (9 h): 1.2 IU/L
TERMINAL_BW (24 h): 213.5 g
APTT (24 h): 16.3 s
Bas (24 h): 0%
Eos (24 h): 1%
Fbg (24 h): 285.8 mg/dL
Hb (24 h): 13.1 g/dL
Ht (24 h): 40.6%
Lym (24 h): 73.2%
MCH (24 h): 21.2 pg
MCHC (24 h): 32.3%
MCV (24 h): 65.5 fL
Mono (24 h): 3%
Neu (24 h): 21.8%
PT (24 h): 14.2 s
Plat (24 h): 118.4 x10_4/uL
RBC (24 h): 620 x10_4/ul
Ret (24 h): 8.7%
WBC (24 h): 87.2 x10_2/uL
KIDNEY_L (24 h): 0.9 g
KIDNEY_R (24 h): 0.9 g
KIDNEY_TOTAL (24 h): 1.8 g
LIVER (24 h): 9.6 g
ALP (24 h): 1663.2 IU/L
ALT (24 h): 44 IU/L
AST (24 h): 75 IU/L
BUN (24 h): 15.2 mg/dL
CRE (24 h): 0.2 mg/dL
Ca (24 h): 11 mg/dL
Cl (24 h): 106.6 meq/L
DBIL (24 h): 0.018 mg/dL
GLC (24 h): 187 mg/dL
IP (24 h): 8.3 mg/dL
K (24 h): 4.3 meq/L
LDH (24 h): 67.4 IU/L
Na (24 h): 145.6 meq/L
PL (24 h): 156.8 mg/dL
RALB (24 h): 2.7 g/dL
TBIL (24 h): 0.03 mg/dL
TC (24 h): 87.8 mg/dL
TG (24 h): 62.6 mg/dL
TP (24 h): 5.7 g/dL
